Assay [1] has as its target T1, DNA repair protein RAD52 homolog (Homo sapiens, UniProt P43351).
T1 sequence (P43351 whole entry): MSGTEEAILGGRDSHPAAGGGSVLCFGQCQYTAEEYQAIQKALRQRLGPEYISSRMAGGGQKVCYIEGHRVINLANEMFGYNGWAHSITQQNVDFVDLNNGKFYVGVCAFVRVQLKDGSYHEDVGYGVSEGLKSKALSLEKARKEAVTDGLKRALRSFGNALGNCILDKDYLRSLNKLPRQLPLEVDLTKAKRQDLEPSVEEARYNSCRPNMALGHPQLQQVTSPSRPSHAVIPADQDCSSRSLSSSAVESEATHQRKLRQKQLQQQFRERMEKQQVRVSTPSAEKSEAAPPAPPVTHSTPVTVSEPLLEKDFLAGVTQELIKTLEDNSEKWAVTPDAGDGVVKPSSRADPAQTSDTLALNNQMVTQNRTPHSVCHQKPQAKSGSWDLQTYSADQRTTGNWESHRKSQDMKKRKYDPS
The assay is classed as functional, biochemical.

The target in another assay is T2, Aminopeptidase N (Plasmodium falciparum FcB1/Columbia, UniProt O96935).
T2 sequence (O96935 whole entry): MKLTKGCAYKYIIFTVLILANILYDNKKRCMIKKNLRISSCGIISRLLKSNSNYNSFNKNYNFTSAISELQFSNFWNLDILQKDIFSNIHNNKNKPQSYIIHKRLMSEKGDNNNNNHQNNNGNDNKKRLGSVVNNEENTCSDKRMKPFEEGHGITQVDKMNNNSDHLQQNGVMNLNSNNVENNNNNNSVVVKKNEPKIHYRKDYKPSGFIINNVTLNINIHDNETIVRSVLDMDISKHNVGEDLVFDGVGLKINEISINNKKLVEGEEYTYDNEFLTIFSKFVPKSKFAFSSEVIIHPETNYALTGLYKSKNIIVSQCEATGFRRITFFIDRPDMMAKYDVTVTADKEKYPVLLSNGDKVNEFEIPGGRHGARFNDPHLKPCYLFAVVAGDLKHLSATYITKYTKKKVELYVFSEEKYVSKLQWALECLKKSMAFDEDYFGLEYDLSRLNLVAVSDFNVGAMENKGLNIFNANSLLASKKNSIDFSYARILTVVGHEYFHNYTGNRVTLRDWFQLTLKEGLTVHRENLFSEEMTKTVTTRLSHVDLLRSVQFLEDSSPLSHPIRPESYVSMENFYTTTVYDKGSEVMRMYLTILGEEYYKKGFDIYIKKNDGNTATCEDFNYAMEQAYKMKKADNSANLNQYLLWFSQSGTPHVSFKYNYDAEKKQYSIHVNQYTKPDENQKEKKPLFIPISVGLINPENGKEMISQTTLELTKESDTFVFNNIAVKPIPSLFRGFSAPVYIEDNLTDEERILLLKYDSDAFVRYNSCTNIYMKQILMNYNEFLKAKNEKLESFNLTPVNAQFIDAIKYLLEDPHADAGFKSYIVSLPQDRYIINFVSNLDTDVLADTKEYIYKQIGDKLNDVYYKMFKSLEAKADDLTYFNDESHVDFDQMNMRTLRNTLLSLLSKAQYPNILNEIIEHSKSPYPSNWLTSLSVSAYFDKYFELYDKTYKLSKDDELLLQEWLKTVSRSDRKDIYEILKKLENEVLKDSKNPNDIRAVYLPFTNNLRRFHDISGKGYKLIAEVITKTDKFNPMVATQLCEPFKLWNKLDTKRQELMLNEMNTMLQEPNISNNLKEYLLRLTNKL
Description: P. falciparum M1AAP inhibitors, biochemical, fluorogenic H-Leu-NHMec substrate, 1536-well (AID 1445). Also on record: species or system Plasmodium falciparum 3D7, 3D7.

The target of assay [2] is T3, Polyadenylate-binding protein 1 (Homo sapiens, UniProt P11940). Description: PABP1 MLLE–PAM2 interaction inhibitors, dose response, miRNA deadenylation inhibitor project, biochemical, fluorescence polarization, Cy5-PAM2 peptide, secondary (AID 602260). The class given is functional. The following applies: read-out: IC50_Mean. (In general: Fluorescence polarisation rises when a labelled molecule tumbles more slowly, as on binding a larger partner.)

Assay [3] deals with T3, Polyadenylate-binding protein 1. Description: PABP1 MLLE–PAM2 binding inhibitor potency, dose response, biochemical, fluorescence polarization, FITC-PAM2 peptide (AID 602259). Particulars: read-out: IC50_Mean. The assay is classed as functional.
Assay [4] in a line: cytotoxicity in OVCAR8 ovarian cancer cells, dose response, PAX8 project, cell-based, plate reader, dry powder samples (AID 743197). The following applies: OVCAR-8. The assay is classed as functional.
Assay [5] can be described thus: ZM109 Env clade C HIV-1 fusion inhibitors, dose response, HeLa effector, CEM target cells, luciferase, cherry-pick (AID 652058). The assay is classed as functional, cell-based.
A short description of assay [6]: inhibitors of HIV Env-driven cell fusion, dose response, cherry-pick (AID 652057). The assay is classed as functional, cell-based.
For another assay, the target named is Paired box protein Pax-8 (Homo sapiens, UniProt Q06710). Description: inhibitors of PAX8-driven TPO luciferase reporter, dose response, RMG-I cells, cherry-pick (AID 687027).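 Further: luciferase reporter driven by Pax8 target thyroperoxidase promoter measured by SteadyGlo luminescence.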 The class given is functional, cell-based. In general terms: A reporter such as luciferase makes a cellular process visible.
Assay [7] in a line: inhibitors of clade B AD8 Env fusion, dose response, cell-based, cherry-pick (AID 652062).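 Further: luciferase signal from cell-cell fusion driven by HIV-1 clade B AD8 Env; potency is for inhibitors of fusion seen as a drop in luminescence.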 The assay is classed as functional.
Assay [8] can be described thus: LGR2 antagonists, dose response, cell-based, HEK293, CRE-luciferase reporter, cherry pick, set 2 (AID 743343).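 Further: transfected cells were stimulated with diluted bursicon conditioned medium after compound addition.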 The assay is classed as functional.
The nature of assay [9]: MC4R antagonists, dose response, counter-screen for LGR2 antagonist project, cell-based, plate reader, cherry pick (AID 743444).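 Further: transfected HEK 293 cells stimulated with alpha-MSH peptide; potency of inhibitors of the alpha-MSH evoked signal.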 The assay is classed as functional.
Another assay deals with HEK293. Description: inhibitors of LMP1-driven NF-kB reporter, dose response, cell-based, HEK293, luciferase, cherry-pick (AID 588343). The class given is functional. The following applies: Homo sapiens.
Assay [10] relates to BJ. Description: cytotoxicity toward BJ-TERT-LT-ST fibroblasts, dose response, cell-based, RAS-independent, luminescence (AID 1935).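 Further: BJ fibroblasts immortalized with TERT plus LT and ST oncogenes.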 The class given is functional. The following applies: Homo sapiens.
Assay [11] concerns BJ. Description: cytotoxicity toward BJ-TERT fibroblasts, dose response, cell-based, RAS-independent, luminescence (AID 1933). The assay is classed as functional. Particulars: Homo sapiens.
Assay [12] in a line: cytotoxicity toward DRD oncogenic fibroblasts, dose response, cell-based, non-viral oncogenic, luminescence (AID 1934). The class given is functional. Particulars: Homo sapiens.
Assay [13] has as its system BJ. As to the kind of experiment: cells. The class given is functional, cell-based. The following applies: Homo sapiens.
Assay [14] deals with Glyceraldehyde-3-phosphate dehydrogenase (Homo sapiens, UniProt P04406).

Active and inactive are the calls of the source.

T3 sequence (P11940 whole entry): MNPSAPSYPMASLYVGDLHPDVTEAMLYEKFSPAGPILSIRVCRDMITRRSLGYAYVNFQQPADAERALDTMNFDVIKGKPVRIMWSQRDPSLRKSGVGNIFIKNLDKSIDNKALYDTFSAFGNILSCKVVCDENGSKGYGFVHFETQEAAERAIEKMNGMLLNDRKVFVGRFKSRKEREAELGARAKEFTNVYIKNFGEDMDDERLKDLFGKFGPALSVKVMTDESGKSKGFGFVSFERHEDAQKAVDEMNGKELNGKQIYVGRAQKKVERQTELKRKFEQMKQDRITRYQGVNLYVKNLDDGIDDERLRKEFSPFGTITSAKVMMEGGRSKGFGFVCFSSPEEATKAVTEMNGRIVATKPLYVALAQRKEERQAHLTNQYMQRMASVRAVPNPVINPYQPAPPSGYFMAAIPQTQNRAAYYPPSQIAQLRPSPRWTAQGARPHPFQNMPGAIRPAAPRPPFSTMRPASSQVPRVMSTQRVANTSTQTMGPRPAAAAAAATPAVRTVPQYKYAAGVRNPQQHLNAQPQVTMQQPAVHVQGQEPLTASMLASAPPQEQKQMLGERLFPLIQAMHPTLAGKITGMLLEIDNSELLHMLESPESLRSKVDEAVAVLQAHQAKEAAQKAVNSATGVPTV
Chain of Paired box protein Pax-8 (Q06710 whole entry, the tested form may be a part): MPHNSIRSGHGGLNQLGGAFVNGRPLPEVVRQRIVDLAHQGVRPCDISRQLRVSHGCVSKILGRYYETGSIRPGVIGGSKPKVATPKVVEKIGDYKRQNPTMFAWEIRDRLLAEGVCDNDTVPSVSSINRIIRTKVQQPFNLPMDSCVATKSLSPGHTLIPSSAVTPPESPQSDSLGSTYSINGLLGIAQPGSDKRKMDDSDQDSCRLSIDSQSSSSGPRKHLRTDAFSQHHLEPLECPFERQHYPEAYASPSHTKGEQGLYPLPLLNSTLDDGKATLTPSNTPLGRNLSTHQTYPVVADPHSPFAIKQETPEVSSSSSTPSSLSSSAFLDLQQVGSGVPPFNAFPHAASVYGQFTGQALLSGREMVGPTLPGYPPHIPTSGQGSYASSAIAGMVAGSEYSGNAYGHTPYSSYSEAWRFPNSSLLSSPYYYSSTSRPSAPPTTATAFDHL
Chain of Glyceraldehyde-3-phosphate dehydrogenase (P04406 whole entry): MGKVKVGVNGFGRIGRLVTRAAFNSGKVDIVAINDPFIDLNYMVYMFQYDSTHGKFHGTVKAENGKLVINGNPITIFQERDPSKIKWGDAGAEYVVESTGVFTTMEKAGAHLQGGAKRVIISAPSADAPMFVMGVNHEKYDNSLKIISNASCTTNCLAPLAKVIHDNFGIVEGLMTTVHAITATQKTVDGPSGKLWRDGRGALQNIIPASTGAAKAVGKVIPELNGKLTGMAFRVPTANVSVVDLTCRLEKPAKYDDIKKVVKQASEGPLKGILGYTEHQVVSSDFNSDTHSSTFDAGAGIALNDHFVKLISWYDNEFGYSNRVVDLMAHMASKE

Usually AC50 stands for the midpoint of the concentration-response curve, whichever way the signal moves. For `CCCNc1nc(Cl)nc(NCc2cccnc2)n1`, in assay [1], the AC50 is 4.26 µM (active).
Consider `Cc1noc(NS(=O)(=O)c2ccc(NC(=O)CSc3nnc(-c4ccccc4)n3C3CCCCC3)cc2)c1C`, for which, at Aminopeptidase N, the IC50 was 75.9 µM (active).
Regarding `Cc1csc(NC(=O)CSCC(=O)O)c1-c1nc2ccccc2s1`, on Aminopeptidase N, the IC50 is 7.09 µM (active).
Regarding `COc1ccc(C(N)=S)c(OC)c1`, the IC50 in assay [2] and in assay [3] was > 66 µM (inactive) in each case. In [1], the AC50 is 9.26 µM (active).
As for `O=C(C[C@H]1C[C@@H]2c3cc(NS(=O)(=O)c4ccc(F)cc4)ccc3O[C@@H]2[C@@H](CO)O1)NCc1ccc(-c2ccccc2)cc1`, the AC50 is 4 µM (active) in [4]; 9.89 µM (active) in assay [5]; 23.1 µM (active) in [6]; 7.31 µM (active) on Paired box protein Pax-8; 19.4 µM (active) in assay [7].
With `O=C(O)c1ccc(N/N=C/c2ccc3ncccc3c2)cc1`, the AC50 in [8] was 3.18 µM (active); in assay [9], 3.72 µM (active); in the assay with HEK293, 2.54 µM (active).
Broadly, the EC50 is the concentration at which the effect is half-maximal. For `COc1c(/C=N/Nc2ccc([N+](=O)[O-])cc2[N+](=O)[O-])c(C)nn1-c1ccccc1`, the EC50 was > 150 µM (inconclusive) with BJ [10], 7.99 µM (active) in the assay with BJ [11], 15.8 µM (active) in assay [12] and > 150 µM (not active) in the assay on BJ [13].
On to `O=C(NCCCO)c1cc(-c2ccc(Cl)cc2Cl)n[nH]1`, for which the IC50 in assay [14] was > 10 µM (inconclusive).

These data come from ChEMBL document CHEMBL1201862, “PubChem BioAssay data set” (2004).
